Reference: patent US10703764B2, “Benzopiperazine compositions as BET bromodomain inhibitors” (FORMA Therapeutics, Inc., priority 2013, dated 2020)

Assays:
BRD4 BD1 = molecular target: T1, BRD4 BD1 (Homo sapiens, UniProt O60885); test: AlphaScreen binding assay, BRD4 Bromodomain 1
T1 construct: made in house
Summary of the method: (§1)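 Compound dilution series were mixed with His-tagged BRD4 bromodomain and biotinylated tetra-acetylated H4 (1-21) peptide at pH 7.3 (BD1 and peptide at 50 nM, BD2 and peptide at 100 nM). Donor and acceptor beads were then added, and plates were equilibrated at least 1 h before reading. IC50 values were fitted with a four-parameter logistic model.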

BRD4 BD2 = molecular target: T2, BRD4 BD2 (Homo sapiens, UniProt O60885); test: AlphaScreen binding assay, BRD4 Bromodomain 2
T2 construct: made in house
Summary of the method: as §1

MV4-11 cells = test: Oncology cell growth assay (3-day proliferation, CellTiter-Glo); format: cell-based; settings: Homo sapiens, MV4-11, 72 h, AML cell line MV4-11, 72 hours, compounds grouped by IC50 range, read-out: MV4-11 IC50 (inhibition of proliferation, gIC50)
Summary of the method: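 Compounds were serially diluted 3-fold in DMSO, giving final well concentrations from 10 down to 0.0045 μM. MV4-11 cells were then seeded at 3000 cells/well in RPMI 1640 with 10% FBS and incubated 72 hours. CellTiter-Glo signal was measured and gIC50 obtained by four-parameter logistic regression.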

Compound | IC50 (BRD4 BD1) [nM] | IC50 (BRD4 BD2) [nM] | IC50 (MV4-11 cells) [nM]
CC(C)OC(=O)N1C[C@H](C)N(C(=O)C2CC2)c2ccc(-c3cnn(CCO)c3)cc21 [Example I-315] | 100 to 1000 | 50 to 500 | 100 to 500
CC(=O)N1c2ccc(-c3cnn(CCF)c3)cc2N(C(=O)OC(C)C)C[C@@H]1C [Example I-666] | 100 to 1000 | 50 to 500 | 100 to 500
CC(=O)N1c2ccc(-c3ccc(N4CCCC4=O)cc3)cc2N(C(=O)C2CCC2)C[C@@H]1C [Example I-1132] | 1000 to 10000 | 50 to 500 | 100 to 500
CC(C)OC(=O)N1C[C@H](C)N(C(=O)C2CC2)c2ccc(-c3cnn(C4COC4)c3)cc21 [Example I-317] | 100 to 1000 | 50 to 500 | 100 to 500
COc1ncc(Cl)cc1OC(=O)N1C[C@H](C)N(C(C)=O)c2ccc(-c3cnn(C4CC4)c3)cc21 [Example I-1207] | 100 to 1000 | 50 to 500 | > 500
CC(=O)N1c2ccc(-c3cccc(S(=O)(=O)NCCO)c3)cc2N(C(=O)C2CC2)C[C@@H]1C [Example I-1108] | 1000 to 10000 | 50 to 500 | 100 to 500
COC(=O)N1c2ccc(-c3cnn(CC4CCOCC4)c3)cc2N(C(=O)OC(C)C)C[C@@H]1C [Example I-641] | 100 to 1000 | 50 to 500 | 100 to 500
CC(=O)N1c2ccc(-c3ccc(N4CCCC4=O)cc3)cc2N(C(=O)OC2CCOCC2)C[C@@H]1C [Example I-1268] | 100 to 1000 | 50 to 500 | 100 to 500
CC(C)OC(=O)N1C[C@H](C)N(C(=O)C2CC2)c2ccc(-c3ccc(C(=O)N4CC[C@H](N(C)C)C4)cc3)cc21 [Example I-566] | 100 to 1000 | 50 to 500 | 100 to 500
CNC(=O)CN(C)C(=O)c1ccc(-c2ccc3c(c2)N(C(=O)OC(C)C)C[C@H](C)N3C(C)=O)cc1 [Example I-554] | < 100 | < 50 | 100 to 500
CC(=O)N1c2ccc(-c3ccc(S(C)(=O)=O)c(F)c3)cc2N(C(=O)OC2CCOCC2)C[C@@H]1C [Example I-1242] | 1000 to 10000 | 50 to 500 | > 500
CC(=O)N1c2ccc(-c3ccc(S(C)(=O)=O)cc3)cc2N(C(=O)Oc2ccccc2)C[C@@H]1C [Example I-223] | 100 to 1000 | < 50 | < 100
CC(=O)N1c2cc(F)c(-c3cnn(C4CC4)c3)cc2N(C(=O)OC(C)C)C[C@@H]1C [Example I-207, Isopropyl (S)-4-acetyl-7-(1-cyclopropyl-1H-pyrazol-4-yl)-6-fluoro-3-methyl-3,4-dihydroquinoxaline-1(2H)-carboxylate] | 100 to 1000 | 50 to 500 | > 500
CC(=O)N1c2ccc(-c3cccc(N4CCCCC4)c3)cc2N(C(=O)c2ccco2)C[C@@H]1C [Example I-867] | 1000 to 10000 | 50 to 500 | > 500
CC(=O)N1c2ccc(-c3ccc(S(=O)(=O)C(C)C)cc3)cc2N(C(=O)OC2CCOCC2)C[C@@H]1C [Example I-1232] | 100 to 1000 | 50 to 500 | 100 to 500
CC(C)OC(=O)N1C[C@H](C)N(C(=O)C2CC2)c2ccc(-c3cnn(CC4CCC4)c3)cc21 [Example I-618] | 1000 to 10000 | > 500 | 100 to 500
CC(=O)N1c2ccc(-c3ccc4c(c3)CCN4S(C)(=O)=O)cc2N(C(=O)C2CC2)C[C@@H]1C [Example I-352] | < 100 | < 50 | < 100
CC(C)OC(=O)N1C[C@H](C)N(C(=O)C2CC2)c2ccc(-c3cnn(CC(N)=O)c3)cc21 [Example I-310] | 100 to 1000 | 50 to 500 | > 500
CC(=O)N1c2ccc(-c3ccc(NC(N)=O)cc3)cc2N(C(=O)c2ccco2)C[C@@H]1C [Example I-280] | 1000 to 10000 | < 50 | 100 to 500
CC(=O)N1c2ccc(-c3cnn(C4CC4)c3)cc2N(C(=O)OC2CCC2)C[C@@H]1C [Example I-1003] | < 100 | 50 to 500 | < 100
C[C@H]1CN(C(=O)OC2CCCC2)c2cc(-c3cnn(C4CC4)c3)ccc2N1C(=O)C1CC1 [Example I-41, (S)-cyclopentyl 4-(cyclopropanecarbonyl)-7-(1-cyclopropyl-1H-pyrazol-4-yl)-3-methyl-3,4-dihydroquinoxaline-1 (2H)-carboxylate] | 100 to 1000 | 50 to 500 | 100 to 500
CC(=O)N1c2ccc(-c3ccc(NS(C)(=O)=O)c(C)c3)cc2N(C(=O)OC(C)C)C[C@@H]1C [Example I-1174] | 100 to 1000 | 50 to 500 | 100 to 500
CC(=O)N1c2ccc(-c3cnn(CC(C)(C)O)c3)cc2N(C(=O)OC(C)C)C[C@@H]1C [Example I-327] | 100 to 1000 | 50 to 500 | 100 to 500
CC(=O)N1c2ccc(-c3cnn(Cc4ccccn4)c3)cc2N(C(=O)OC(C)C)C[C@@H]1C [Example I-120, (S)-isopropyl 4-acetyl-3-methyl-7-(1-(pyridin-2-ylmethyl)-1H-pyrazol-4-yl)-3,4-dihydroquinoxaline-1(2H)-carboxylate] | 100 to 1000 | < 50 | 100 to 500

Second part, the molecule after the results:

IC50 (BRD4 BD1) [nM] | IC50 (BRD4 BD2) [nM] | IC50 (MV4-11 cells) [nM] | Compound
100 to 1000 | 50 to 500 | 100 to 500 | CC(=O)N1c2ccc(-c3ccc(NS(=O)(=O)C4CC4)cc3)cc2N(C(=O)C2CC2)C[C@@H]1C [Example I-351]
100 to 1000 | < 50 | 100 to 500 | CCCn1cc(-c2ccc3c(c2)N(C(=O)c2ccco2)C[C@H](C)N3C(C)=O)cn1 [Example I-269]
100 to 1000 | 50 to 500 | 100 to 500 | CC(=O)N1c2ccc(-c3ccc(C4(O)COC4)cc3)cc2N(C(=O)OC(C)C)C[C@@H]1C [Example I-473]
1000 to 10000 | 50 to 500 | > 500 | CC(=O)N1c2ccc(-c3ccc(S(C)(=O)=O)cc3)cc2N(C(=O)C2CCC2)C[C@@H]1C [Example I-245]
100 to 1000 | < 50 | 100 to 500 | CC(=O)N1c2ccc(-c3cccc(C(=O)N(C)C)c3)cc2N(C(=O)c2ccco2)C[C@@H]1C [Example I-848]
100 to 1000 | < 50 | 100 to 500 | CC(=O)N1c2ccc(-c3cnn(Cc4c(C)noc4C)c3)cc2N(C(=O)OC(C)C)C[C@@H]1C [Example I-602]
100 to 1000 | 50 to 500 | 100 to 500 | CC(=O)N1c2ccc(-c3ccc(OCCC#N)cc3)cc2N(C(=O)c2ccco2)C[C@@H]1C [Example I-428]
100 to 1000 | 50 to 500 | 100 to 500 | CCNC(=O)Cn1cc(-c2ccc3c(c2)N(C(=O)OC(C)C)C[C@H](C)N3C(C)=O)cn1 [Example I-664]
100 to 1000 | 50 to 500 | 100 to 500 | CC(=O)N1c2ccc(-c3ccc(NS(C)(=O)=O)cc3)cc2N(C(=O)Oc2ccccn2)C[C@@H]1C [Example I-1316]
100 to 1000 | 50 to 500 | < 100 | CC(=O)N1c2ccc(-c3ccc(C(=O)N4CCCN(C)CC4)cc3)cc2N(C(=O)OC(C)C)C[C@@H]1C [Example I-553]
100 to 1000 | 50 to 500 | 100 to 500 | CC(C)OC(=O)N1C[C@H](C)N(C(=O)C2CC2)c2ccc(-c3cnn(CC4CCOCC4)c3)cc21 [Example I-623]
< 100 | < 50 | 100 to 500 | CC(=O)N1c2ccc(-c3cnn(C4COC4)c3)cc2N(C(=O)OC2CC3CC3C2)C[C@@H]1C (stereo partly drawn) [Example I-74, (3S)-bicyclo[3.1.0]hexan-3-yl 4-acetyl-3-methyl-7-(1-(oxetan-3-yl)-1H-pyrazol-4-yl)-3,4-dihydroquinoxaline-1(2H)-carboxylate]
1000 to 10000 | 50 to 500 | 100 to 500 | COc1ccc(-c2ccc3c(c2)N(C(=O)C2CCC2)C[C@H](C)N3C(C)=O)cc1NS(C)(=O)=O [Example I-1140]
100 to 1000 | < 50 | 100 to 500 | CC(=O)N1c2ccc(-c3cnn(C4CCCS(=O)(=O)C4)c3)cc2N(C(=O)OC2CCCCC2)C[C@@H]1C (stereo partly drawn) [Example I-1312]
100 to 1000 | < 50 | 100 to 500 | CC(=O)N1c2ccc(-c3cn(S(=O)(=O)N(C)C)cn3)cc2N(C(=O)c2ccco2)C[C@@H]1C [Example I-410]
100 to 1000 | 50 to 500 | 100 to 500 | CC(=O)N1c2ccc(-c3cnn(CCCO)c3)cc2N(C(=O)C2CC2)C[C@@H]1C [Example I-673]
1000 to 10000 | > 500 | > 500 | CC(=O)N1c2cc(Br)c(-c3cnn(C4CC4)c3)cc2N(C(=O)OC(C)C)C[C@@H]1C [Example I-209, Isopropyl (S)-4-acetyl-6-bromo-7-(1-cyclopropyl-1H-pyrazol-4-yl)-3-methyl-3,4-dihydroquinoxaline-1(2H)-carboxylate]
100 to 1000 | 50 to 500 | 100 to 500 | CC(=O)N1c2ccc(-c3ccc(C(=O)N4CC[C@@H](O)C4)cc3)cc2N(C(=O)OC(C)C)C[C@@H]1C [Example I-581]
100 to 1000 | < 50 | > 500 | COC(=O)N1c2ccc(-c3cnn(CC(C)(C)O)c3)cc2N(C(=O)Oc2ccc(F)cc2)C[C@@H]1C [Example I-1023]
100 to 1000 | < 50 | 100 to 500 | CCN(CC)C(=O)c1ccc(-c2ccc3c(c2)N(C(=O)OC(C)C)C[C@H](C)N3C(C)=O)cc1 [Example I-536]
